Experimental data reported in ChEMBL document CHEMBL5705887, “Distinct concentration-dependent effects of the polo-like kinase 1-specific inhibitor GSK461364A, including differential effect on apoptosis” (Cancer Res, 2009).
Activity calls are given as the source filed them. The calls are words filed in the database; no cut-off is given here.

Experiments:
A549 = test: Antiproliferative activity against human A549 cells assessed as of viable cell signal at minimum maximum cell growth incubated for 72 hrs by celltiter-glo assay relative to control; format: functional
NCI-H82 = test: Antiproliferative activity against human NCI-H82 cells assessed as viable cell signal at maximum growth inhibition incubated for 72 hrs by celltiter-glo assay relative to control; format: functional
ZR-75-1 [1] = test: Growth inhibition of human ZR-75-1 cells assessed as viable cells at 250 nmol/L measured immediately by celltiter-glo assay; format: functional; conditions: read-out: Activity
SK-MEL-28 = test: Antiproliferative activity against human SK-MEL-28 cells assessed as of viable cell signal at minimum maximum cell growth incubated for 72 hrs by celltiter-glo assay relative to control; format: functional
OVCAR-4 = test: Antiproliferative activity against human OVCAR-4 cells assessed as of viable cell signal at minimum maximum cell growth incubated for 72 hrs by celltiter-glo assay relative to control; format: functional
THP-1 [2] = test: Antiproliferative activity against human THP-1 cells assessed as of viable cell signal at minimum maximum cell growth incubated for 72 hrs by celltiter-glo assay relative to control; format: functional
HL-60 = test: Antiproliferative activity against human HL-60 cells assessed as viable cell signal at maximum growth inhibition incubated for 72 hrs by celltiter-glo assay relative to control; format: functional
NCI-H358 = test: Antiproliferative activity against human NCI-H358 cells assessed as growth inhibition incubated for 72 hrs by celltiter-glo assay; format: functional
SW-620 = test: Antiproliferative activity against human SW620 cells assessed as of viable cell signal at minimum maximum cell growth incubated for 72 hrs by celltiter-glo assay relative to control; format: functional
MIA PaCa-2 = test: Antiproliferative activity against human MIA PaCa-2 cells assessed as of viable cell signal at minimum maximum cell growth incubated for 72 hrs by celltiter-glo assay relative to control; format: functional
BXPC-3 = test: Antiproliferative activity against human BXPC-3 cells assessed as viable cell signal at maximum growth inhibition incubated for 72 hrs by celltiter-glo assay relative to control; format: functional
ASPC1 = test: Antiproliferative activity against human ASPC1 cells assessed as growth inhibition incubated for 72 hrs by celltiter-glo assay; format: functional
LoVo [3] = test: Antiproliferative activity against human LoVo cells assessed as of viable cell signal at minimum maximum cell growth incubated for 72 hrs by celltiter-glo assay relative to control; format: functional
SK-MEL-2 [4] = test: Antiproliferative activity against human SK-MEL-2 cells assessed as of viable cell signal at minimum maximum cell growth incubated for 72 hrs by celltiter-glo assay relative to control; format: functional
PC-3 [5] = test: Antiproliferative activity against human PC-3 cells assessed as of viable cell signal at minimum maximum cell growth incubated for 72 hrs by celltiter-glo assay relative to control; format: functional
LNCaP = test: Antiproliferative activity against human LNCaP cells assessed as of viable cell signal at minimum maximum cell growth incubated for 72 hrs by celltiter-glo assay relative to control; format: functional
MX1 = test: Antiproliferative activity against human MX1 cells assessed as of viable cell signal at minimum maximum cell growth incubated for 72 hrs by celltiter-glo assay relative to control; format: functional
LoVo [6] = test: Antiproliferative activity against human LoVo cells assessed as viable cell signal at maximum growth inhibition incubated for 72 hrs by celltiter-glo assay relative to control; format: functional
ZR-75-1 [7] = test: Antiproliferative activity against human ZR-75-1 cells assessed as growth inhibition at 10 to 250 nmol/L incubated for 72 hrs by celltiter-glo assay; format: functional, cell-based; conditions: dose 10-250 nmol/L
[8] = molecular target: Platelet-derived growth factor receptor alpha (Homo sapiens) (UniProt P16234); test: Inhibition of N-terminal his6-tagged recombinant human PDGFRalpha (550 to end residues) expressed in baculovirus Sf21 insect cells at 10 uM relative to control
Sequence of Platelet-derived growth factor receptor alpha (Homo sapiens) (P16234 whole entry): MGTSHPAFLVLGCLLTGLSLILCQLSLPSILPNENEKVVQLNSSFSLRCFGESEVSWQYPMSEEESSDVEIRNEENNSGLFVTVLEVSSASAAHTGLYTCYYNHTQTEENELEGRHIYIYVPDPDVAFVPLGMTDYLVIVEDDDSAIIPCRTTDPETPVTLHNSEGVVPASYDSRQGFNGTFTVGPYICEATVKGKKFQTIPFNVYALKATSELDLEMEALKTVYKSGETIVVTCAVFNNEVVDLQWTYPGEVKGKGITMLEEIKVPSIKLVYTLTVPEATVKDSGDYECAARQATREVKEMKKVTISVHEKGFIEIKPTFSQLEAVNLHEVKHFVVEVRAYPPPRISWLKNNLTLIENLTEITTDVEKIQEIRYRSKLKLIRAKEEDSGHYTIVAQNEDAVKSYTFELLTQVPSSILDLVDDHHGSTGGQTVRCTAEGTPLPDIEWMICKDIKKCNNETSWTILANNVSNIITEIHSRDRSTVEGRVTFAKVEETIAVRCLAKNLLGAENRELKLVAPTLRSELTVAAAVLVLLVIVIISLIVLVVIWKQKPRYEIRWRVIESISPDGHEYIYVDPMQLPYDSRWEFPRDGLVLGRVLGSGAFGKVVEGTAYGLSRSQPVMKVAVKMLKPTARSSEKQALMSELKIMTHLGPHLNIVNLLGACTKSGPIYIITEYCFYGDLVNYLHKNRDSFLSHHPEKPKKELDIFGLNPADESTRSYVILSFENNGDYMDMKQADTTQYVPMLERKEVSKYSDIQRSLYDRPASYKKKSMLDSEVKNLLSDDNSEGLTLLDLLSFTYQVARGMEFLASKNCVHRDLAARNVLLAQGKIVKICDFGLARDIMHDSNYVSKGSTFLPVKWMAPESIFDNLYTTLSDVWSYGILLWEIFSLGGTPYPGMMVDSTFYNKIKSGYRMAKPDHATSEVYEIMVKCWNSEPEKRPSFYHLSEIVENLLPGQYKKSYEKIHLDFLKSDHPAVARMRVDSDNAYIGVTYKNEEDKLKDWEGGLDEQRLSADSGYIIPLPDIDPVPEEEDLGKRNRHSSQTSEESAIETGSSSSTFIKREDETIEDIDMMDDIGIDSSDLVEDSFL

PC-3 [9] = test: Antiproliferative activity against human PC-3 cells assessed as growth inhibition incubated for 72 hrs by celltiter-glo assay; format: functional
COLO 205 [10] = test: Antitumor activity against human COLO 205 cells xenografted in ip dosed Nude mouse assessed as increase in pHH3 level measured at 24 to 48 hrs by […]; format: functional, organism-based; conditions: dose 50-100 mg/kg, time 24-48 hrs
RPMI-8226 = test: Antiproliferative activity against human RPMI-8226 cells assessed as viable cell signal at maximum growth inhibition incubated for 72 hrs by celltiter-glo assay relative to control; format: functional
SK-MEL-2 [11] = test: Antiproliferative activity against human SK-MEL-2 cells assessed as viable cell signal at maximum growth inhibition incubated for 72 hrs by celltiter-glo assay relative to control; format: functional
Hep 3B2 = test: Antiproliferative activity against human Hep3B cells assessed as growth inhibition incubated for 72 hrs by celltiter-glo assay; format: functional
COLO 205 [12] = test: Antitumor activity against human COLO 205 cells xenografted in Nude mouse assessed as effect on Ki67 level at 50 mg/kg, ip administered one dose every 2 day repeated for 12 days by immunohistochemistry analysis; format: functional, organism-based; conditions: time 12.0 day
A2780 = test: Antiproliferative activity against human A2780 cells assessed as of viable cell signal at minimum maximum cell growth incubated for 72 hrs by celltiter-glo assay relative to control; format: functional
Calu-1 [13] = test: Antiproliferative activity against human Calu-1 cells assessed as of viable cell signal at minimum maximum cell growth incubated for 72 hrs by celltiter-glo assay relative to control; format: functional
THP-1 [14] = test: Antiproliferative activity against human THP-1 cells assessed as growth inhibition incubated for 72 hrs by celltiter-glo assay; format: functional
PANC-08-13 = test: Antiproliferative activity against human PANC-08-13 cells assessed as growth inhibition incubated for 72 hrs by celltiter-glo assay; format: functional
Calu-1 [15] = test: Antiproliferative activity against human Calu-1 cells assessed as growth inhibition incubated for 72 hrs by celltiter-glo assay; format: functional
HN5 = test: Antiproliferative activity against human HN5 cells assessed as viable cell signal at maximum growth inhibition incubated for 72 hrs by celltiter-glo assay relative to control; format: functional
Panc 02.03 = test: Antiproliferative activity against human Panc 02.03 cells assessed as growth inhibition incubated for 72 hrs by celltiter-glo assay; format: functional
NCI-N87 = test: Antiproliferative activity against human NCI-N87 cells assessed as viable cell signal at maximum growth inhibition incubated for 72 hrs by celltiter-glo assay relative to control; format: functional
[16] = tested on: Platelet-derived growth factor receptor alpha (Homo sapiens), P16234 [V561D]; test: Inhibition of N-terminal his6-tagged recombinant human PDGFRA V561D mutant at 10 uM relative to control
Sequence of Platelet-derived growth factor receptor alpha (Homo sapiens), P16234 [V561D] (P16234 whole entry V561D): as the sequence (P16234 whole entry) above, with V561D counted along it

T-24 = test: Antiproliferative activity against human T24 cells assessed as of viable cell signal at minimum maximum cell growth incubated for 72 hrs by celltiter-glo assay relative to control; format: functional
U-87 MG = test: Antiproliferative activity against human U-87 MG cells assessed as of viable cell signal at minimum maximum cell growth incubated for 72 hrs by celltiter-glo assay relative to control; format: functional, U-87MG ATCC
SCLC = test: Antiproliferative activity against human SCLC cells assessed as of viable cell signal at minimum maximum cell growth incubated for 72 hrs by celltiter-glo assay relative to control; format: functional
HeLa = test: Antiproliferative activity against human HeLa cells assessed as viable cell signal at maximum growth inhibition incubated for 72 hrs by celltiter-glo assay relative to control; format: functional
NCI-H522 = test: Antiproliferative activity against human NCI-H522 cells assessed as growth inhibition incubated for 72 hrs by celltiter-glo assay; format: functional

## C[C@@H](Oc1cc(-n2cnc3ccc(CN4CCN(C)CC4)cc32)sc1C(N)=O)c1ccccc1C(F)(F)F [GSK-461364]
A549
  Emin: 124.1%
NCI-H82
  Emax: 398%
ZR-75-1 [1]
  viability at 0.25 µM: 200%
SK-MEL-28
  Emin: 199.6%
OVCAR-4
  Emin: 164.7%
THP-1 [2]
  Emin: 60.3%
HL-60
  Emax: 191%
NCI-H358
  GI50: 13.4 nM
SW-620
  Emin: 54.6%
MIA PaCa-2
  Emin: 100.2%
BXPC-3
  Emax: 278%
ASPC1
  GI50: 22.3 nM
LoVo [3]
  Emin: 23.4%
SK-MEL-2 [4]
  Emin: 71.3%
PC-3 [5]
  Emin: 385.1%
LNCaP
  Emin: 99.3%
MX1
  Emin: 161.5%
LoVo [6]
  Emax: 400%
ZR-75-1 [7]
  Activity: inactive
[8]
  inhibition: 72%
PC-3 [9]
  GI50: 14700 nM
COLO 205 [10]
  Activity: Dose-Dependent Effect
RPMI-8226
  Emax: 515%
SK-MEL-2 [11]
  Emax: 422%
Hep 3B2
  GI50: 35.8 nM
COLO 205 [12]
  Activity: Active
A2780
  Emin: 68.5%
Calu-1 [13]
  Emin: 179.8%
THP-1 [14]
  GI50: 11.8 nM
PANC-08-13
  GI50: 18.9 nM
Calu-1 [15]
  GI50: 186 nM
HN5
  Emax: 812%
Panc 02.03
  GI50: 20.9 nM
NCI-N87
  Emax: 776%
[16]
  inhibition: 96%
T-24
  Emin: 109%
U-87 MG
  Emin: 0.1%
SCLC
  Emin: 122%
HeLa
  Emax: 406%
NCI-H522
  GI50: 16.9 nM
